Reference: patent US5935955A, “Pharmaceutical piperazine compounds” (Xenova Limited, priority 1994, dated 1999)
Where a name gives a salt, the structure may show the parent alone. Read-outs that look alike come from different tables or passages of the source.

What was measured:
AR 1.0 cells [1] = assay: Drug accumulation assay (tritiated daunorubicin); format: cell-based; settings: Mus musculus; for Emax: 1 h, read-out: Max accumulation; for IC50: daunorubicin 2 μM, 1 hr at 37° C., read-out: IC50 accumulation
Method: AR 1.0 cells were seeded into 96 well opaque culture plates (Canberra Packard). The assay medium contained a mixture of tritiated Daunorubicin (DNR), a cytotoxic agent, and unlabelled DNR (0.3 μCi/ml; 2 μM). Compounds of formula I were serially diluted in assay medium over a range of concentrations from 5 nM to 100 μM. The cells were incubated at 37° C. for 1 hr before washing and determination of cell associated radioactivity. Results were expressed as % maximum accumulation where 100% accumulation is that observed in the presence of the known RMA verapamil at 100 μM. Where possible an IC50 was determined.

AR 1.0 cells [2] = assay: Compound toxicity (proliferation, sulphorhodamine B); format: cell-based; settings: Mus musculus, 96 h; compound alone; AR 1.0 cells; four day incubation; read-out: Compound toxicity (IC50)
AR 1.0 cells [3] = assay: Potentiation of doxorubicin toxicity (fixed doxorubicin 0.86 μM, proliferation, sulphorhodamine B); format: cell-based, mouse; settings: for IC50: with doxorubicin 0.86 μM, four day incubation, 5760 min, read-out: Toxicity with cytotoxic agent (IC50)
Description: Compounds of formula (I) were examined for their ability to potentiate the toxicity of doxorubicin in AR 1.0 cells.

[4] = % maximum accumulation, 100% = verapamil at 100 μM, compound 5 nM to 100 μM

SMILES | Emax (AR 1.0 cells [1]; [4]) [%] | IC50 (AR 1.0 cells [1]) [µM] | IC50 (AR 1.0 cells [2]) [µM] | IC50 (AR 1.0 cells [3]) [µM] | Emax (AR 1.0 cells [1]) [%] | Toxicity of doxorubicin alone (AR 1.0 cells [3]; doxorubicin alone, 0.86 μM, AR 1.0 cells)
CN1CCN(CCNC(=O)c2ccc(/C=c3\[nH]c(=O)/c(=C/c4ccccc4)n(C)c3=O)cc2)CC1 [Compound 9007, N-(2-(4-Methyl-1-piperazinyl)ethyl)-4-((3Z,6Z)-6-benzylidene-1-methyl-2,5-dioxo-3-piperazinylidene)methylbenzamide] | 30 | – | – | – | – | –
CN(CCNC(=O)c1ccc(/C=c2\[nH]c(=O)/c(=C/c3ccccc3)n(C)c2=O)cc1)C(c1ccccc1)c1ccccc1 [Compound 9076, N-(2-Diphenylmethylmethylaminoethyl)-4-((3Z,6Z)-6-benzylidene-1-methyl-2,5-dioxo-3-piperazinylidene)methylbenzamide, hydrochloride] | 44 | – | – | – | – | –
Cn1c(=O)/c(=C/c2ccc(C(=O)NCCN3CCc4ccccc4C3)cc2)[nH]c(=O)/c1=C/c1ccccc1 [Compound 9116, N-(2-(1,2,3,4-Tetrahydro-2-isoquinolyl)ethyl)-4-((3Z,6Z)-6-benzylidene-1-methyl-2,5-dioxo-3-piperazinylidene)methylbenzamide, hydrochloride] | – | 4 | 8 | 1 | – | –
CN(C)CC(O)COc1ccc(/C=c2\[nH]c(=O)/c(=C/c3ccccc3)n(C)c2=O)cc1 (stereo not drawn) [Compound 9023, (3Z,6Z)-6-Benzylidene-3-(4-(3-dimethylamino-2-hydroxypropoxy)benzylidene)-1-methyl-2,5-piperazinedione] | 30 | – | 10 | 5 | – | –
Cn1c(=O)/c(=C/c2ccc(C(=O)Nc3ccc(CCN4CCN(c5ccccc5)CC4)cc3)cc2)[nH]c(=O)/c1=C/c1ccccc1 [Compound 9103, N-(4-(2-(4-Phenyl-1-piperazinyl)ethyl)phenyl)-4-((3Z,6Z)-6-benzylidene-1-methyl-2,5-dioxo-3-piperazinylidene)methylbenzamide] | 20 | – | – | – | – | –
Cn1c(=O)/c(=C/c2ccc(C(=O)Nc3ccc(N4CCOCC4)cc3)cc2)[nH]c(=O)/c1=C/c1ccccc1 [Compound 9054, N-(4-Morpholinophenyl)-4-((3Z,6Z)-6-benzylidene-1-methyl-2,5-dioxo-3-piperazinylidene)methylbenzamide, hydrochloride] | 32 | – | 50 | 30 | – | –
Cn1c(=O)/c(=C/c2ccc(C(=O)NCCN3CCOCC3)cc2)[nH]c(=O)/c1=C/c1ccccc1 [Compound 9053, N-(2-Morpholinoethyl)-4-((3Z,6Z)-6-benzylidene-1-methyl-2,5-dioxo-3-piperazinylidene)methylbenzamide, hydrochloride] | – | 50 | 40 | – | – | –
COc1ccc(CCNC(=O)c2ccc(/C=c3\[nH]c(=O)/c(=C/c4ccccc4)n(C)c3=O)cc2)cc1OC [Compound 9117, N-(3,4-Dimethoxyphenethyl)-4-((3Z,6Z)-6-benzylidene-1-methyl-2,5-dioxo-3-piperazinylidene)methylbenzamide] | – | 5 | 8 | 3 | – | –
COc1cc2c(cc1OC)CN(CC1CCN(C(=O)c3ccc(/C=c4\[nH]c(=O)/c(=C/c5ccccc5)n(C)c4=O)cc3)CC1)CC2 [Compound 9200, 1-(4-((3Z,6Z)-6-Benzylidene-1-methyl-2,5-dioxo-3-piperazinylidene)methylbenzoyl)-4-(6,7-dimethoxy-1,2,3,4-tetrahydroisoquinolyl)methylpiperidine] | – | 1.7 | 13 | 0.8 | – | –
Cn1c(=O)/c(=C/c2ccc(C(=O)Nc3ccc(CN4CCc5c([nH]c6ccccc56)C4)cc3)cc2)[nH]c(=O)/c1=C/c1ccccc1 [Compound 9096, N-(4-(1,2,3,4-Tetrahydro-β-carbolin-2-yl)methylphenyl)-4-((3Z,6Z)-6-benzylidene-1-methyl-2,5-dioxo-3-piperazinylidene)methylbenzamide] | – | – | – | – | 20 | –
CN1CCN(C(=O)c2ccc(/C=c3\[nH]c(=O)/c(=C/c4ccccc4)n(C)c3=O)cc2)CC1 [Compound 9052, 1-(4-((3Z,6Z)-6-Benzylidene-1-methyl-2,5-dioxo-3-piperazinylidene)methylbenzoyl)-4-methylpiperazine, hydrochloride] | – | 100 | – | – | – | –
COc1ccc(CCN(C)CCNC(=O)c2cccc(/C=c3\[nH]c(=O)/c(=C/c4ccccc4)n(C)c3=O)c2)cc1OC [Compound 9137] | – | 2 | 12 | 4.5 | – | –
C=CCNC(=O)c1ccc(/C=c2\[nH]c(=O)/c(=C/c3ccccc3)n(C)c2=O)cc1 [Compound 9070, N-Allyl-4-((3Z,6Z)-6-benzylidene-1-methyl-2,5-dioxo-3-piperazinylidene)methylbenzamide] | – | 5 | 40 | – | – | –
COc1cc2c(cc1OC)CN(Cc1ccc(NC(=O)c3cccc(/C=c4\[nH]c(=O)/c(=C/c5ccccc5)n(C)c4=O)c3)cc1)CC2 [Compound 9128, N-(4-(6,7-Dimethoxy-1,2,3,4-tetrahydro-2-isoquinolyl)methylphenyl)-3-((3Z,6Z)-6-benzylidene-1-methyl-2,5-dioxo-3-piperazinylidene)methylbenzamide] | – | 3 | 10 | 2 | – | –
Cn1c(=O)/c(=C/c2cccc(C(=O)Nc3ccc(CCN4CCN(c5ccccc5)CC4)cc3)c2)[nH]c(=O)/c1=C/c1ccccc1 [Compound 9083, N-(4-(2-(4-Phenyl-1-piperazinyl)ethyl)phenyl)-3-((3Z,6Z)-6-benzylidene-1-methyl-2,5-dioxo-3-piperazinylidene)methylbenzamide] | – | 2 | 3 | 0.1 | – | –
COc1cccc2c1C(=O)c1c(O)c3c(c(O)c1C2=O)C[C@@](O)(C(=O)CO)C[C@@H]3O[C@H]1C[C@H](N)[C@H](O)[C@H](C)O1 [doxorubicin, reference compound] | – | – | – | – | – | non-toxic
Cn1c(=O)/c(=C/c2ccc(C(=O)Nc3ccc(CCN4CCc5c([nH]c6ccccc56)C4)cc3)cc2)[nH]c(=O)/c1=C/c1ccccc1 [Compound 9080, N-(4-(2-(1,2,3,4-Tetrahydro-β-carbolin-2-yl)ethyl)phenyl)-4-((3Z,6Z)-6-benzylidene-1-methyl-2,5-dioxo-3-piperazinylidene)methylbenzamide] | – | – | – | – | 18 | –
COc1cc2c(cc1OC)CN(CCNC(=O)c1ccc(/C=c3\[nH]c(=O)/c(=C/c4ccccc4)n(C)c3=O)cc1)CC2 [Compound 9008, N-(2-(6,7-Dimethoxy-1,2,3,4-tetrahydro-2-isoquinolyl)ethyl)-4-((3Z,6Z)-6-benzylidene-1-methyl-2,5-dioxo-3-piperazinylidene)methylbenzamide] | – | 3 | 10 | 2 | – | –
COc1cc2c(cc1OC)CN(CCc1ccc(/C=c3\[nH]c(=O)/c(=C/c4ccccc4)n(C)c3=O)cc1)CC2 [Compound 9115, (3Z,6Z)-6-Benzylidene-3-(4-(2-(6,7-dimethoxy-1,2,3,4-tetrahydro-2-isoquinolyl)ethyl)benzylidene)-1-methyl-2,5-piperazinedione] | – | 5 | 60 | 2 | – | –
COc1cc2c(cc1OC)CN(CCCc1ccc(NC(=O)c3cccc(/C=c4\[nH]c(=O)/c(=C/c5ccccc5)n(C)c4=O)c3)cc1)CC2 [Compound 9161, N-(4-(3-(6,7-Dimethoxy-1,2,3,4-tetrahydro-2-isoquinolyl)propyl)phenyl)-3-((3Z,6Z)-6-benzylidene-1-methyl-2,5-dioxo-3-piperazinylidene)methylbenzamide,hydrochloride] | 20 | – | – | – | – | –
